Measured values as given in patent US4678783A, “Substituted isoquinolinesulfonyl compounds” (Asahi Kasei Kogyo Kabushiki Kaisha, priority 1984, dated 1987).

Tests used:
[1] = test system: mesenteric artery of a rabbit; test: Relaxation of Mesenteric Artery (KCl-contracted spiral strip); design: species or system rabbit of Japanese local variety; conditions: Oryctolagus cuniculus; concentration of the hydrochloride attaining 50% of complete relaxation; rabbit mesenteric artery contracted with KCl; read-out: ED50 (the source's name)
Method: A rabbit of Japanese local variety weighing about 3 kg was subjected to blood-letting to death. Then, abdomen of the rabbit was dissected to pick up a mesenteric artery. […] Thus, the shrinkage and relaxation of the artery was ready to be measured as a load on the transducer. To the organ bath, KCl was added in an amount which makes the artery shrink at a half length that in 15 to 20 mM aqueous solution. Then, hydrochlorides of the compounds of the present invention were added to the organ bath to observe relaxation effect on the artery.
Effect of the compounds of the present invention on relaxation of mesenteric artery was examined according to the method as mentioned hereinbefore.

[2] = test system: male spontaneously hypertensive rats (SHR); test: Reduction of Blood Pressure (systolic, tail plethysmographic method, oral); format: in vivo, rat (SHR, Wister Kyoto)
Method: Male spontaneously hypertensive rats (SHR, Wister Kyoto) weighing 300 to 350 g were used. Systolic blood pressure was measured indirectly by the tail plethysmographic method in conscious SHR, just prior to, and 1, 2, 4 and 6 hours after oral administration of test drugs. Test drugs, dissolved in deionized water, were administered orally in a volume of 10 ml-solution/kg-rat. Reduction in systolic blood pressure (ΔP, mmHg) was calculated by substracting a systolic blood pressure after administration from that just prior to administration.
Effect of the compounds of the present invention on reduction of blood pressure was examined according to the method as mentioned hereinbefore.

Compound: N=C(N)NCCCCNS(=O)(=O)c1cccc2c(O)nccc12 [Compound (55), N-(4-guanidinobutyl)-1-hydroxy-5-isoquinolinesulfonamide]
- EC50 [1]: 13 µM
- ΔPmax (maximally reduced blood pressure) ([2]; 100 mg/kg): 38 mmHg

Compound: CC1(C)CN(S(=O)(=O)c2cccc3cnccc23)CCCN1 [Compound (6), 1-(5-isoquinolinesulfonyl)-3,3-dimethylhomopiperazine]
- EC50 [1]: 10 µM

Compound: CC(C)C(N)CNS(=O)(=O)c1cccc2c(Cl)nccc12 (stereo not drawn) [Compound (28), N-(2-amino-3-methylbutyl)-1-chloro-5-isoquinolinesulfonamide]
- EC50 [1]: 10 µM
- ΔPmax (maximally reduced blood pressure) ([2]; 50 mg/kg): 58 mmHg

Compound: O=S(=O)(c1cccc2c(Cl)nccc12)N1CCNCC1 [Compound (75), 1-(1-chloro-5-isoquinolinesulfonyl)piperazine]
- EC50 [1]: 1 µM

Compound: CCC1CN(S(=O)(=O)c2cccc3cnccc23)CCCN1 (stereo not drawn) [Compound (7), 1-(5-isoquinolinesulfonyl)-3-ethylhomopiperazine]
- EC50 [1]: 6 µM

Compound: CC(C)CC1CN(S(=O)(=O)c2cccc3c(O)nccc23)CCN1 (stereo not drawn) [Compound (63), 1-(1-hydroxy-5-isoquinolinesulfonyl)-3-isobutylpiperazine]
- EC50 [1]: 18 µM
- ΔPmax (maximally reduced blood pressure) ([2]; 100 mg/kg): 48 mmHg

Compound: CC(CNC(=N)N)CNS(=O)(=O)c1cccc2c(O)nccc12 (stereo not drawn) [Compound (59), N-(3-guanidino-2-methylpropyl)-1-hydroxy-5-isoquinolinesulfonamide]
- EC50 [1]: 21 µM
- ΔPmax (maximally reduced blood pressure) ([2]; 100 mg/kg): 52 mmHg

Compound: CCC1CN(S(=O)(=O)c2cccc3c(O)nccc23)CCN1 (stereo not drawn) [Compound (62), 1-(1-hydroxy-5-isoquinolinesulfonyl)-3-ethylpiperazine]
- EC50 [1]: 25 µM
- ΔPmax (maximally reduced blood pressure) ([2]; 100 mg/kg): 36 mmHg

Compound: CCCCC(CN)NS(=O)(=O)c1cccc2c(O)nccc12 (stereo not drawn) [Compound (50), N-(1-aminomethylpentyl)-1-hydroxyl-5-isoquinolinesulfonamide]
- EC50 [1]: 7 µM
- ΔPmax (maximally reduced blood pressure) ([2]; 50 mg/kg): 28 mmHg

Compound: CCCCNCCNS(=O)(=O)c1cccc2c(Cl)nccc12 [Compound (73), N-(2-butylaminoethyl)-1-chloro-5-isoquinolinesulfonamide]
- EC50 [1]: 8 µM

Compound: NCCCCNS(=O)(=O)c1cccc2c(Cl)nccc12 [Compound (25), N-(4-aminobuthyl)-1-chloro-5-isoquinolinesulfonamide]
- EC50 [1]: 7 µM
- ΔPmax (maximally reduced blood pressure) ([2]; 100 mg/kg): 50 mmHg

Compound: CCCCCCN1CCCN(S(=O)(=O)c2cccc3cnccc23)CC1 [Compound (23), 1-(5-isoquinolinesulfonyl)-4-hexylhomopiperazine]
- EC50 [1]: 12 µM

Compound: CC1NCCCN(S(=O)(=O)c2cccc3cnccc23)C1C (stereo not drawn) [Compound (5), 1-(5-isoquinolinesulfonyl)-2,3-dimethylhomopiperazine]
- EC50 [1]: 8 µM

Compound: NCCCCNS(=O)(=O)c1cccc2c(O)nccc12 [Compound (48), N-(4-aminobutyl)-1-hydroxy-5-isoquinolinesulfonamide]
- EC50 [1]: 15 µM
- ΔPmax (maximally reduced blood pressure) ([2]; 100 mg/kg): 51 mmHg

Compound: CC(CN)NS(=O)(=O)c1cccc2c(O)nccc12 (stereo not drawn) [Compound (49), N-(2-amino-1-methylethyl)-1-hydroxy-5-isoquinolinesulfonamide]
- EC50 [1]: 14 µM
- ΔPmax (maximally reduced blood pressure) ([2]; 50 mg/kg): 33 mmHg

Compound: CCCCC(CN)NS(=O)(=O)c1cccc2c(Cl)nccc12 (stereo not drawn) [Compound (27), N-(1-aminomethylpentyl)-1-chloro-5-isoquinolinesulfonamide]
- EC50 [1]: 4 µM
- ΔPmax (maximally reduced blood pressure) ([2]; 50 mg/kg): 45 mmHg

Compound: NCCNS(=O)(=O)c1cccc2c(Cl)nccc12 [Compound (24), N-(2-aminoethyl)-1-chloro-5-isoquinolinesulfonamide]
- EC50 [1]: 5 µM
- ΔPmax (maximally reduced blood pressure) ([2]; 50 mg/kg): 70 mmHg

Compound: CC1CNCCN(S(=O)(=O)c2cccc3cnccc23)C1 (stereo not drawn) [Compound (4), 1-(5-isoquinolinesulfonyl)-6-methylhomopiperazine]
- EC50 [1]: 1.6 µM

Compound: CC1CN(S(=O)(=O)c2cccc3c(O)nccc23)CCN1 (stereo not drawn) [Compound (61), 1-(1-hydroxy-5-isoquinolinesulfonyl)-3-methylpiperazine]
- EC50 [1]: 17 µM
- ΔPmax (maximally reduced blood pressure) ([2]; 100 mg/kg): 48 mmHg

Compound: CCCCC(CNC(=N)N)NS(=O)(=O)c1cccc2c(O)nccc12 (stereo not drawn) [Compound (57), N-(1-guanidinomethylpentyl)-1-hydroxy-5-isoquinolinesulfonamide]
- EC50 [1]: 11 µM
- ΔPmax (maximally reduced blood pressure) ([2]; 100 mg/kg): 38 mmHg

Compound: N=C(N)N1CCCN(S(=O)(=O)c2cccc3c(Cl)nccc23)CC1 [Compound (44), 1-(1-chloro-5-isoquinolinesulfonyl)-4-amidinohomopiperazine]
- EC50 [1]: 4 µM
- ΔPmax (maximally reduced blood pressure) ([2]; 100 mg/kg): 25 mmHg

Compound: CC(CNC(=N)N)NS(=O)(=O)c1cccc2c(Cl)nccc12 (stereo not drawn) [Compound (33), N-(2-guanidino-1-methylethyl)-1-chloro-5-isoquinolinesulfonamide]
- EC50 [1]: 4 µM
- ΔPmax (maximally reduced blood pressure) ([2]; 100 mg/kg): 51 mmHg

Compound: CC(CN)NS(=O)(=O)c1cccc2c(Cl)nccc12 (stereo not drawn) [Compound (26), N-(2-amino-1-methylethyl)-1-chloro-5-isoquinolinesulfonamide]
- EC50 [1]: 4 µM
- ΔPmax (maximally reduced blood pressure) ([2]; 50 mg/kg): 53 mmHg

Compound: CC(CNC(=N)N)NS(=O)(=O)c1cccc2c(O)nccc12 (stereo not drawn) [Compound (56), N-(2-guanidino-1-methylethyl)-1-hydroxy-5-isoquinolinesulfonamide]
- EC50 [1]: 14 µM
- ΔPmax (maximally reduced blood pressure) ([2]; 100 mg/kg): 45 mmHg

Compound: CC1CN(S(=O)(=O)c2cccc3c(Cl)nccc23)C(C)CN1 (stereo not drawn) [Compound (41), 1-(1-chloro-5-isoquinolinesulfonyl)-2,5-dimethylpiperazine]
- EC50 [1]: 14 µM
- ΔPmax (maximally reduced blood pressure) ([2]; 100 mg/kg): 39 mmHg

Compound: CC(CNC(=N)N)CNS(=O)(=O)c1cccc2c(Cl)nccc12 (stereo not drawn) [Compound (36), N-(3-guanidino-2-methylpropyl)-1-chloro-5-isoquinolinesulfonamide]
- EC50 [1]: 7 µM
- ΔPmax (maximally reduced blood pressure) ([2]; 100 mg/kg): 48 mmHg

Compound: N=C(N)N1CCN(S(=O)(=O)c2cccc3c(O)nccc23)CC1 [Compound (66), 1-(1-hydroxy-5-isoquinolinesulfonyl)-4-amidinopiperazine]
- EC50 [1]: 4 µM
- ΔPmax (maximally reduced blood pressure) ([2]; 100 mg/kg): 43 mmHg

Compound: CCCCN(CCCC)CCCNS(=O)(=O)c1cccc2c(Cl)nccc12 [Compound (29), N-(3-di-n-butylaminopropyl)-1-chloro-5-isoquinolinesulfonamide]
- EC50 [1]: 11 µM
- ΔPmax (maximally reduced blood pressure) ([2]; 50 mg/kg): 43 mmHg

Compound: CC1CN(C(=N)N)CCN1S(=O)(=O)c1cccc2c(O)nccc12 (stereo not drawn) [Compound (68), 1-(1-hydroxy-5-isoquinolinesulfonyl)-4-amidino-2-methylpiperazine]
- EC50 [1]: 9 µM
- ΔPmax (maximally reduced blood pressure) ([2]; 100 mg/kg): 48 mmHg

Compound: CCCCCCNCCNS(=O)(=O)c1cccc2c(Cl)nccc12 [Compound (74), N-(2-hexylaminoethyl)-1-chloro-5-isoquinolinesulfonamide]
- EC50 [1]: 2 µM
- ΔPmax (maximally reduced blood pressure) ([2]; 100 mg/kg): 45 mmHg

Compound: CCCNCCNS(=O)(=O)c1cccc2c(Cl)nccc12 [Compound (72), N-(2-propylaminoethyl)-1-chloro-5-isoquinolinesulfonamide]
- EC50 [1]: 11 µM

Compound: O=S(=O)(c1cccc2cnccc12)N1CCCNC(c2ccccc2)C1 (stereo not drawn) [Compound (10), 1-(5-isoquinolinesulfonyl)-3-phenylhomopiperazine]
- EC50 [1]: 12 µM

Compound: CCNCCNS(=O)(=O)c1cccc2c(Cl)nccc12 [Compound (71), N-(2-ethylaminoethyl)-1-chloro-5-isoquinolinesulfonamide]
- EC50 [1]: 12 µM

Compound: CCCC1CNCCN(S(=O)(=O)c2cccc3cnccc23)C1 (stereo not drawn) [Compound (13), 1-(5-isoquinolinesulfonyl)-6-propylhomopiperazine]
- EC50 [1]: 11 µM

Compound: CCC1CNCCN(S(=O)(=O)c2cccc3cnccc23)C1 (stereo not drawn) [Compound (12), 1-(5-isoquinolinesulfonyl)-6-ethylhomopiperazine]
- EC50 [1]: 3 µM

Compound: CC(C)CC1CN(S(=O)(=O)c2cccc3cnccc23)CCCN1 (stereo not drawn) [Compound (9), 1-(5-isoquinolinesulfonyl)-3-isobutylhomopiperazine]
- EC50 [1]: 4 µM

Compound: NCCNS(=O)(=O)c1cccc2cnccc12 [compound 1, reference compound]
- ΔPmax (maximally reduced blood pressure) ([2]; 100 mg/kg): 31 mmHg

Compound: CC1CN(S(=O)(=O)c2cccc3cnccc23)CCN1 (stereo not drawn) [compound 3, reference compound]
- ΔPmax (maximally reduced blood pressure) ([2]; 100 mg/kg): 10 mmHg

Compound: CN1CCCN(S(=O)(=O)c2cccc3cnccc23)CC1 [Compound (19), 1-(5-isoquinolinesulfonyl)-4-methylhomopiperazine]
- EC50 [1]: 8 µM

Compound: CCN1CCCN(S(=O)(=O)c2cccc3cnccc23)CC1 [Compound (20), 1-(5-isoquinolinesulfonyl)-4-ethylhomopiperazine]
- EC50 [1]: 11 µM

Compound: CC1CNCCCN1S(=O)(=O)c1cccc2cnccc12 (stereo not drawn) [Compound (2), 1-(5-isoquinolinesulfonyl)-2-methylhomopiperazine]
- EC50 [1]: 4 µM

Compound: CCCCN1CCCN(S(=O)(=O)c2cccc3cnccc23)CC1 [Compound (22), 1-(5-isoquinolinesulfonyl)-4-butylhomopiperazine]
- EC50 [1]: 13 µM

Compound: CCCCCCC1CNCCN(S(=O)(=O)c2cccc3cnccc23)C1 (stereo not drawn) [Compound (16), 1-(5-isoquinolinesulfonyl)-6-hexylhomopiperazine]
- EC50 [1]: 12 µM
